Data taken from patent publication US8404803B2, “Cancer-associated antigen analogue peptides and uses thereof” (Chugai Seiyaku Kabushiki Kaisha, priority 2005, dated 2013).
“And” between values parts separate entries of the source, which are not always exact repeats. Equal values may be shown once.

Legend:
Format in all cases: cell-based, human
[1] = test system: CD4-positive/IL-4-producing T cells; experiment: Flow cytometry detection of CD4-positive/IL-4-positive T cells in peptide-stimulated mononuclear cell samples; details: for CD4-positive/IL-4-positive frequencies, mean ± standard deviation: epitope determination, patient's mononuclear cell samples (FIG. 14); for CD4+ IL-4+ number of positive samples/tested samples: mononuclear cell samples cultured 48 hours with peptide and IL-2; for CD4+ IL-4+ number of positive samples/tested samples / CD4+ IL-4+ number of positive samples/tested samples × 100 (%): positive sample > mean of control + 2 × SD (OVCA10-MNC group, 1.148%); for frequency of CD4-positive/IL-4-positive cells, mean±standard deviation: all the analyzed mononuclear cell samples (FIG. 8); for frequency of CD4-positive/IL-4-positive T cells: FIGS. 6 and 7, IL-2 and analogue peptide added
Procedure: (§1) All operations concerning cell culture were performed aseptically. First, human peripheral mononuclear cell fractions (comprising T cells, B cells, macrophages and such; hereinafter referred to as “mononuclear cell samples”) were prepared from the blood samples by density gradient centrifugation. Next, these mononuclear cells were suspended at 1×10^5 cell/ml in complete media having the following composition: • Complete Medium: RPMI1640 culture medium (Gibco Laboratories Inc., Grand Island, N.Y.) to which 10% fetal bovine serum (Cell Culture Laboratories, Cleveland, Ohio), 0.2 mM L-glutamine, 100 U/mL penicillin, 100 μg/mL streptomycin (Gibco Laboratories Inc.), and 0.2 ng/mL recombinant human IL-2 (Dainippon Pharmaceutical Co., Tokyo, Japan) have been mixed.
(§2) Theses mononuclear cell samples were placed still in V-bottomed 96-well tissue culture plastic plates (Flow Laboratories Inc., Horsham, Pa.) in the presence and absence of peptides, and cultured for 48 hours at 37° C. in a CO2 culture apparatus (Sanyo Medica, Osaka, Japan).
(§3) A number of mouse-derived anti-human specific monoclonal antibodies with different fluorescences (hereinafter referred to as ‘monoclonal antibodies’) were used to simultaneously analyze by double-staining the CD markers CD4 and CD8, which are on the T cell membranes, and the cytokines within the T cells. As the monoclonal antibodies, products labeled with either fluorescent substance phycoerythrin (hereinafter ‘PE’) or fluorescein isothiocyanate (hereinafter ‘FITC’) were used (Miltenyi Biotec, Glandbach, Germany). For detection, a flow cytometry apparatus FACScan (Becton Dickinson) was used to measure the frequency of cells to which the monoclonal antibodies had bound. Positive cells are automatically detected by the flow cytometry apparatus.
(§4) Since positive cells cannot be identified after the cytokines have been secreted to the outside of the cells, detection was performed at a stage where the cytokines are inside the cells. Therefore, the Cytofix/Cytoperm Kit (Pharmingen, San Diego, Calif.) was used for the analysis, using methods recommended by the manufacturer and a positive control for detection recommended by the kit (Prussin C, Metcalfe D, Detection of intracytoplasmic cytokine using flow cytometry and directly conjugated anti-cytokine antibodies, J Immunol Meth. 188: 117-128, 1995). Specifically, brefeldin A (Pharmingen, San Diego, Calif.) was added at 0.7 μl/1 ml/well to stop protein production in the Golgi apparatus, and the peptide-stimulated mononuclear cell samples were treated at 37° C. for two hours. Next, the culture plates were placed on ice and the reaction was stopped by adding physiological saline at 4° C. The mononuclear cell samples were transferred into 15 ml tubes as though by washing with the physiological saline at 4° C., and were then centrifuged at 1600 rpm for ten minutes to remove the supernatant.
(§5) First, to dye CD4s on the cell surface, 10 μl of FITC-labeled mouse anti-human CD4 was added, with CD8 monoclonal antibody as a control, and this was reacted at 4° C. for 30 minutes. The cells were then separated with 0.5% bovine serum albumin/physiological saline at 4° C., then 0.5% bovine serum albumin/physiological saline at 4° C. was added thereto, and this was centrifuged at 1600 rpm for ten minutes at 4° C. to remove the supernatant.
(§6) Next, the mononuclear cell samples were fixed and their cell membranes were permeabilized. The cells were suspended in 250 μl of Cytofix/Cytoperm (Pharmingen) solution and reacted at 4° C. for 20 minutes. 10 μl of the aforementioned fluorescently labeled anti-IFNγ monoclonal antibody or anti-IL-4 monoclonal antibody was added to these mononuclear cell samples and reacted at 4° C. for 30 minutes. Then, the cells were separated by adding 0.5% bovine serum albumin/physiological saline at 4° C., and 0.5% BSA/PBS at 4° C. was further added thereto. After centrifugation at 1600 rpm for ten minutes at 4° C., the supernatant was removed. […]

[2] = test system: CD4-positive/IFNγ-producing T cells; experiment: Flow cytometry detection of CD4-positive/IFNγ-positive T cells in peptide-stimulated mononuclear cell samples; details: for CD4-positive/IFNγ expression-positive frequencies, mean ± standard deviation: epitope determination, patient's mononuclear cell samples (FIG. 16); for CD4+ IFNγ+ number of positive samples/tested samples: mononuclear cell samples cultured 48 hours with peptide and IL-2; for CD4+ IFNγ+ number of positive samples/tested samples / CD4+ IFNγ+ number of positive samples/tested samples × 100 (%): positive sample > mean of control + 2 × SD (OVCA10-MNC group, 1.378%); for frequency of CD4-positive/INFγ-positive cells, mean±standard deviation: all of the analyzed mononuclear cell samples (FIG. 11); for frequency of CD4-positive/IFNγ-positive T cells: FIGS. 9 and 10, IL-2 and analogue peptide added
Procedure: as §1, §2, §3, §4, §5, §6

CD4-positive T cells = experiment: Analysis of the CD4-positive T cell epitope (T cells positive for IL-4 or IFNγ); details: peptides with ten amino acid residues reproducing the MUC16 primary sequence
Procedure: The results were recorded as: number of double staining-positive cells/total number of counted mononuclear cells ×100=positive cell frequency (%). Furthermore, peptide antigen-specific T cell reactions were determined to be positive when the individual frequencies of positive cells in the mononuclear cell samples were the same as or greater than the mean plus two standard deviations (mean+2SD) of the negative control group, where the negative control was a mononuclear cell sample group that had been stimulated with analogue peptide (OVCA10 stimulation). In addition, each of the peptide-stimulated groups were compared by using t-tests to measure the significant difference.
Next, to determine the T cell epitope (based not on the analogues but on the original sequence), the present inventors went back to the original amino acid sequence of the 11-times repeat sequences of MUC16 from which the 30 amino acid residue sequence: […] (SEQ ID NO: 45) common to OVCA11 and OVCA12 was derived. Furthermore, the sequence was divided into lots of ten amino acid residues to prepare OVCA101 (SEQ ID NO: 4), 102 (SEQ ID NO: 5), 103 (SEQ ID NO: 6), 104 (SEQ ID NO: 7), 105 (SEQ ID NO: 8), 106 (SEQ ID NO: 9), 107 (SEQ ID NO: 2), 108 (SEQ ID NO: 3), 109, 110, 111, 112, 113, 114, 115 (SEQ ID NO: 10) (FIG. 5), and T cells positive for IL-4 or IFNγ were detected using a method similar to the above.

[3] = typical example of flow cytometry

Sequence | CD4-positive/IL-4-positive frequencies, mean ± standard deviation ([1]; peptide 15 μM) [%] | CD4+ IL-4+ number of positive samples/tested samples [1] | CD4+ IL-4+ number of positive samples/tested samples × 100 (%) [1] [%] | CD4-positive/IFNγ expression-positive frequencies, mean ± standard deviation ([2]; peptide 15 μM) [%] | CD4+ IFNγ+ number of positive samples/tested samples [2] | CD4+ IFNγ+ number of positive samples/tested samples × 100 (%) [2] [%] | frequency of CD4-positive/IL-4-positive cells, mean±standard deviation ([1]; peptide 15 μM) [%] | frequency of CD4-positive/IL-4-positive T cells [1, 3] [%] | frequency of CD4-positive/INFγ-positive cells, mean±standard deviation ([2]; peptide 15 μM) [%] | frequency of CD4-positive/IFNγ-positive T cells [2, 3] [%] | frequency of CD4-positive/IL-4-producing T cells at the time of epitope determination ([1]; FIG. 14, peptide 15 μM) | frequency of CD4-positive/IL-4-positive T cells at the time of epitope determination ([1]; typical example of flow cytometry, FIG. 13, IL-2 and peptide added) [%] | frequency of CD4-positive/IFNγ-producing T cells at the time of epitope determination ([2]; FIG. 16, peptide 15 μM) | frequency of CD4-positive/IFNγ-positive T cells at the time of epitope determination ([2]; typical example of flow cytometry, FIG. 15, IL-2 and peptide added) [%] | recognized by CD4-positive T cells (CD4-positive T cells) | frequency of CD4-positive/IL-4-producing T cells compared to groups to which OVCA10 was added ([1]; FIG. 8, peptide 15 μM, statistically significant difference) | frequency of CD4-positive/IFNγ-producing T cells compared to groups to which OVCA10 was added ([2]; FIG. 11, peptide 15 μM, statistically significant difference)
ETTATGPLLV (listed as Homo sapiens) [OVCA104] | 0.301±0.340 | 0/14 | 0 | 0.376±0.490 | 1/14 | 7.1 |  |  |  |  |  |  |  |  |  |  | 
GHTAPGPLLV (listed as Homo sapiens) [OVCA102] | 0.231±0.309 | 0/14 | 0 | 0.532±0.545 | 1/14 | 7.1 |  |  |  |  |  |  |  |  |  |  | 
GHTAPVPLLI (listed as Homo sapiens) [OVCA101] | 0.181±0.231 | 0/14 | 0 | 0.471±0.562 | 2/14 | 14.3 |  |  |  |  |  |  |  |  |  |  | 
GPSAASPLLV (listed as Homo sapiens) [OVCA106] | 0.649±1.337 | 2/14 | 14.3 | 0.641±1.082 | 2/14 | 14.3 |  |  |  |  |  |  |  |  |  |  | 
GPTTASPLLV (listed as Homo sapiens) [OVCA105] | 0.243±0.358 | 1/14 | 0 | 0.379±0.497 | 1/14 | 7.1 |  |  |  |  |  |  |  |  |  |  | 
GTSGTPASLPGHTAPGPLLV (listed as Homo sapiens) [OVCA10] |  | 1/33 | 3.0 |  | 1/33 | 3.0 | 0.252±0.448 | 0.05 | 0.328±0.525 | 0.11 |  |  |  |  |  |  | 
LFTLNPTITN [OVCA108] | 6.471±13.319 | 5/9 | 55.6 | 8.963±19.939 | 2/8 | 25.0 |  |  |  |  | High frequency cases could be detected | 1.17 | High frequency cases could be detected | 1.27 | recognized by CD4-positive T cells |  | 
LRYEENMRHP (listed as Homo sapiens) [OVCA115] | 0.281±0.424 | 1/9 | 11.1 | 0.161±0.157 | 0/8 | 0 |  |  |  |  |  |  |  |  |  |  | 
LRYEENMRHPGSRKFNTTER (listed as Homo sapiens) [OVCA13] |  | 0/6 | 0 |  | 0/6 | 0 |  |  |  |  |  |  |  |  |  |  | 
PFTLNFTITNLRYEENMRHP (listed as Homo sapiens) [OVCA12] |  | 18 of the 33 and 18/33 | 54.5 |  | 13 of the 33 and 13/33 | 39.4 | 5.263±9.059 | 0.57 | 5.071±10.315 | 0.28 |  |  |  |  |  | higher | higher
RPIVPGPLLV (listed as Homo sapiens) [OVCA103] | 0.211±0.269 | 0/14 | 0 | 0.331±0.467 | 1/14 | 7.1 |  |  |  |  |  |  |  |  |  |  | 
STPGTSTVHLGTSGTPASLP (listed as Homo sapiens) [OVCA9] |  | 0/29 | 0 |  | 2/29 | 6.9 |  | 0.05 |  | 0.02 |  |  |  |  |  |  | 
